Laboratory results: patent publication US8658794B2, “8-methyl-1-phenyl-imidazol[1,5-a]pyrazine compounds as Lck inhibitors and uses thereof” (Merck Sharp & Dohme B.V., priority 2010, dated 2014)

biological target: T1, N-terminal His6-tagged recombinant full-length human Lck (Homo sapiens, UniProt P06239); assay: Lck IMAP assay; format: biochemical; conditions: ATP 6 μM (KM,ATP), enzyme pre-incubated with compounds for 60 minutes, values given as bins
T1 construct: N-terminal His6-tagged recombinant full-length human Lck; His6 (N); purchased Millipore
T1 sequence (P06239 whole entry): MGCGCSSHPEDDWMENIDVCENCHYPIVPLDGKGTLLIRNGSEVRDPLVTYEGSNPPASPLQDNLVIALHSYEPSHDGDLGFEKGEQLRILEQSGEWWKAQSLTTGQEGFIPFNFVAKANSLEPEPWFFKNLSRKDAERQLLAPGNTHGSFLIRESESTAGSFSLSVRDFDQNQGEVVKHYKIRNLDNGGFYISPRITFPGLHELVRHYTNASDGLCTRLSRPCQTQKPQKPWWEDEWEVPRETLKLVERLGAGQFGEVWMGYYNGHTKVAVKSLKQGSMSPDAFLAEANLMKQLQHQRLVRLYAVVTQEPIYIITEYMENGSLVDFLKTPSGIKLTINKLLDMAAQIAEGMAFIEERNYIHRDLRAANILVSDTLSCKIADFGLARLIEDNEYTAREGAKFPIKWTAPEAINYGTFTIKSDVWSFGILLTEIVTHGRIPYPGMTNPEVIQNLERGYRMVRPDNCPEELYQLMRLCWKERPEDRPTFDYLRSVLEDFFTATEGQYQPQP
Text: Inhibition of kinase activity can be measured using the Immobilized Metal Assay for Phosphochemicals (IMAP) assay. IMAP is a homogeneous fluorescence polarization (FP) assay based on affinity capture of phosphorylated peptide substrates. IMAP uses fluorescein-labeled peptide substrates that, upon phosphorylation by a protein kinase, bind to so-called IMAP nanoparticles, which are derivatized with trivalent metal complexes. Binding causes a change in the rate of the molecular motion of the peptide, and results in an increase in the FP value observed for the fluorescein label attached to the substrate peptide (Gaudet et al. A homogeneous fluorescence polarization assay adaptable for a range of protein serine/threonine and tyrosine kinases. J. Biomol. Screen (2003) 8, 164-175).
Enzyme used was N-terminal His6-tagged recombinant full-length human Lck from Millipore. Phosphorylation substrate was a fluorescein-labeled peptide (5FAM-KVEKIGEGTYGVV—NH2) derived from p34cdc2 from Molecular Devices. Enzymes, substrate and ATP were diluted in Kinase Reaction buffer (10 mM Tris-HCl, 10 mM MgCl2, 0.01% Tween-20, 0.05% NaN3 pH 7.2, 1 mM DTT (dithiotreitol). The final volume at the kinase reaction step of the assay in the 384-well plate was 20 μl. Final amount of enzyme in the reaction was 0.1 U/ml. Enzyme was pre-incubated with compounds diluted in 1% DMSO (dimethylsulfoxide) for 60 minutes at room temperature in the dark. Subsequently, peptide substrate to a final concentration of 100 nM, and ATP to a final concentration of 6 μM were added and the mix was incubated for 120 minutes at room temperature in the dark. IMAP progressive binding buffer (75% 1× buffer A, 25% 1× buffer B with 1:600 Progressive Binding Reagent; Molecular Devices) was added, followed by an incubation step of 60 minutes at room temperature in the dark. Finally, the FP signal was read on an Envision Multilabel reader (Perkin Elmer).
All biochemical assays were run at KM,ATP of the enzyme using non-saturated conditions, meaning that during the incubation time it was assured that the signal increase was linear with time. For all biochemical assays a reference standard was used on each plate.
Ten point serial dilutions using a √10 dilution factor were used for dose response testing of compounds. Starting concentration was 10^-6M for Lck IMAP assays. Dose-response curves were run as two experiments on duplicate plates (N=1; n=2). All data was normalized to percentage effect based on maximum (Max) and minimum (Min) control values. On every 384 assay plate 16 wells were used as minimum wells (wells with ATP, 0% effect) and 16 wells were used as maximum wells (wells without ATP, 100% effect). 16 wells were used for measuring the background signal, obtained from a kinase reaction containing all constituents except the labeled peptide substrate. Percentage effect was plotted against log dilution concentration of compound to obtain sigmoid dose response curves. pIC50 values were calculated using ActivityBase.

SMILES | IC50 [nM]
COc1cc(-c2nc([C@H]3CC[C@H](N4CCN(C)CC4)CC3)n3ccnc(C)c23)ccc1NC(=O)c1cc2c(O)cccc2n1C [Example 59, 4-Hydroxy-N-(2-methoxy-4-(8-methyl-3-((trans)-4-(4-methylpiperazin-1-yl)cyclohexyl)imidazo[1,5-a]pyrazin-1-yl)phenyl)-1-methyl-1H-indole-2-carboxamide] | ≤ 10
CCC[C@H](C)OC(=O)Nc1ccc(-c2nc(N3CCN(C(C)=O)CC3)n3ccnc(C)c23)cc1OC [Example 31, (S)-Pentan-2-yl 4-(3-(4-acetylpiperazin-1-yl)-8-methylimidazo[1,5-a]pyrazin-1-yl)-2-methoxyphenylcarbamate] | ≤ 10
COc1cc(-c2nc([C@H]3CC[C@@H](N4CCN(C)CC4)CC3)n3ccnc(C)c23)ccc1NC(=O)c1cc2c(OC)cccc2n1C [Example 8, 4-Methoxy-N-(2-methoxy-4-(8-methyl-3-((cis)-4-(4-methylpiperazin-1-yl)cyclohexyl)imidazo[1,5-a]pyrazin-1-yl)phenyl)-1-methyl-1H-indole-2-carboxamide] | ≤ 10
COc1cc(-c2nc(C3(C)COC3)n3ccnc(C)c23)ccc1NC(=O)c1cc2c(OC)cccc2n1C [Example 13, 4-Methoxy-N-(2-methoxy-4-(8-methyl-3-(3-methyloxetan-3-yl)imidazo[1,5-a]pyrazin-1-yl)phenyl)-1-methyl-1H-indole-2-carboxamide] | ≤ 10
COc1cc(-c2nc([C@H]3CC[C@H](N4CCN(C)CC4)CC3)n3ccnc(C)c23)ccc1NC(=O)c1cc2c(OC)cccc2[nH]1 [Example 58, 4-Methoxy-N-(2-methoxy-4-(8-methyl-3-((trans)-4-(4-methylpiperazin-1-yl)cyclohexyl)imidazo[1,5-a]pyrazin-1-yl)phenyl)-1H-indole-2-carboxamide] | ≤ 10
COc1cc(-c2nc([C@H]3CC[C@H](N4CCN(C(C)=O)CC4)CC3)n3ccnc(C)c23)ccc1NC(=O)c1cc2c(OC)cccc2n1C [Example 2, N-(4-(3-((Trans)-4-(4-acetylpiperazin-1-yl)cyclohexyl)-8-methylimidazo[1,5-a]pyrazin-1-yl)-2-methoxyphenyl)-4-methoxy-1-methyl-1H-indole-2-carboxamide] | ≤ 10
COc1cc(-c2nc([C@H]3CC[C@H](N4CCNCC4)CC3)n3ccnc(C)c23)ccc1NC(=O)c1cc2c(OC)cccc2n1C [Example 54, 4-Methoxy-N-(2-methoxy-4-(8-methyl-3-((trans)-4-(piperazin-1-yl)cyclohexyl)imidazo[1,5-a]pyrazin-1-yl)phenyl)-1-methyl-1H-indole-2-carboxamide] | ≤ 10
COc1cc(-c2nc(C3CCN(C4CCN(C(C)=O)CC4)CC3)n3ccnc(C)c23)ccc1NC(=O)c1cc2c(OC)cccc2n1C [Example 49, N-(4-(3-(1′-acetyl-1,4′-bipiperidin-4-yl)-8-methylimidazo[1,5-a]pyrazin-1-yl)-2-methoxyphenyl)-4-methoxy-1-methyl-1H-indole-2-carboxamide] | ≤ 10
CCC[C@H](C)OC(=O)Nc1ccc(-c2nc(N3CCC3)n3ccnc(C)c23)cc1OC [Example 3, (S)-pentan-2-yl 4-(3-(azetidin-1-yl)-8-methylimidazo[1,5-a]pyrazin-1-yl)-2-methoxyphenylcarbamate] | 10 to 100
CCC[C@H](C)OC(=O)Nc1ccc(-c2nc(C3CCC(N4CCN(C)CC4)C3)n3ccnc(C)c23)cc1OC (mixture of isomers) [Example 28, (S)-Pentan-2-yl 2-methoxy-4-(8-methyl-3-(3-(4-methylpiperazin-1-yl)cyclopentyl)imidazo[1,5-a]pyrazin-1-yl)phenylcarbamate] | ≤ 10
COc1cc(-c2nc(C3CCOCC3)n3ccnc(C)c23)c(F)cc1NC(=O)c1cc2c(OC)cccc2n1C [Example 46, N-(5-fluoro-2-methoxy-4-(8-methyl-3-(tetrahydro-2H-pyran-4-yl)imidazo[1,5-a]pyrazin-1-yl)phenyl)-4-methoxy-1-methyl-1H-indole-2-carboxamide] | ≤ 10
CCC[C@H](C)OC(=O)Nc1ccc(-c2nc([C@H]3CCN(C(=O)COC)C3)n3ccnc(C)c23)cc1OC [Example 50, (S)-pentan-2-yl 2-methoxy-4-(3-((S)-1-(2-methoxyacetyl)pyrrolidin-3-yl)-8-methylimidazo[1,5-a]pyrazin-1-yl)phenylcarbamate] | ≤ 10
COc1cc(-c2nc(C3CCN(C(=O)CN)CC3)n3ccnc(C)c23)ccc1NC(=O)c1cc2ccccc2n1C [Example 20, N-(4-(3-(1-(2-Aminoacetyl)piperidin-4-yl)-8-methylimidazo[1,5-a]pyrazin-1-yl)-2-methoxyphenyl)-1-methyl-1H-indole-2-carboxamide] | ≤ 10
COc1cc(-c2nc([C@H]3CC[C@H](N4CCN(C)CC4)CC3)n3ccnc(C)c23)ccc1NC(=O)c1cc(Cl)cn1C [Example 55, 4-Chloro-N-(2-methoxy-4-(8-methyl-3-((trans)-4-(4-methylpiperazin-1-yl)cyclohexyl)imidazo[1,5-a]pyrazin-1-yl)phenyl)-1-methyl-1H-pyrrole-2-carboxamide] | ≤ 10
COc1cc(-c2nc(C3CCN(C)CC3)n3ccnc(C)c23)ccc1NC(=O)c1cc2ccccc2n1C [Example 43, N-(2-methoxy-4-(8-methyl-3-(1-methylpiperidin-4-yl)imidazo[1,5-a]pyrazin-1-yl)phenyl)-1-methyl-1H-indole-2-carboxamide] | ≤ 10

Now from value to compound:

IC50 [nM] | SMILES
≤ 10 | COc1cc(-c2nc([C@H]3CC[C@H](N4CCN(C)CC4)CC3)n3ccnc(C)c23)ccc1NC(=O)c1cc2ccccc2n1C [Example 33b, N-(2-methoxy-4-(8-methyl-3-((trans)-4-(4-methylpiperazin-1-yl)cyclohexyl)imidazo[1,5-a]pyrazin-1-yl)phenyl)-1-methyl-1H-indole-2-carboxamide 2,2,2-trifluoroacetate]
10 to 100 | COc1cc(-c2nc(N3CCN(C(C)=O)CC3)n3ccnc(C)c23)ccc1NC(=O)c1cc2c(OC)cccc2n1C [Example 33g, N-(4-(3-(4-acetylpiperazin-1-yl)-8-methylimidazo[1,5-a]pyrazin-1-yl)-2-methoxyphenyl)-4-methoxy-1-methyl-1H-indole-2-carboxamide]
≤ 10 | COc1cc(-c2nc([C@H]3CC[C@H](N4CCN(C(C)=O)CC4)CC3)n3ccnc(C)c23)ccc1NC(=O)c1cc2ccccc2n1C [Example 33c, N-(4-(3-((trans)-4-(4-acetylpiperazin-1-yl)cyclohexyl)-8-methylimidazo[1,5-a]pyrazin-1-yl)-2-methoxyphenyl)-1-methyl-1H-indole-2-carboxamide]
≤ 10 | COc1cc(-c2nc([C@H]3CC[C@@H](N(C)C)CC3)n3ccnc(C)c23)ccc1NC(=O)c1cc2c(OC)cccc2n1C [Example 26e, N-(4-(3-((cis)-4-(dimethylamino)cyclohexyl)-8-methylimidazo[1,5-a]pyrazin-1-yl)-2-methoxyphenyl)-4-methoxy-1-methyl-1H-indole-2-carboxamide]
≤ 10 | CCC[C@H](C)OC(=O)Nc1ccc(-c2nc([C@H]3CC[C@H](N4CCN(C)CC4)CC3)n3ccnc(C)c23)cc1OC [Example 33a, (S)-pentan-2-yl 2-methoxy-4-(8-methyl-3-((trans)-4-(4-methylpiperazin-1-yl)cyclohexyl)imidazo[1,5-a]pyrazin-1-yl)phenylcarbamate]
